# According to patent publication US10294202B2, “Pyrrolidinones as herbicides” (FMC Corporation, priority 2013, dated 2019):
# Assays:
# [1] = tested on: corn; test: Test A pre-/postemergence herbicide test; type: in vivo, Zea mays
# Outline: (§1)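 Both application timings used compounds in a non-phytotoxic solvent plus surfactant. Pre-emergence: soil sprayed directly after seeding into loam/sand. Post-emergence: foliage of 2–10 cm seedlings (1–2 leaves) sprayed. Injury rated ~10 days later, 0–100.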
# [2] = tested on: crabgrass, large; test: Test A pre-/postemergence herbicide test; type: in vivo, Digitaria sanguinalis
# Outline: as §1
# [3] = tested on: pigweed; test: Test A pre-/postemergence herbicide test; type: in vivo, Amaranthus retroflexus
# Outline: as §1
# [4] = tested on: rice; test: Test B flooded paddy test; type: in vivo, Oryza sativa; settings: Flood, scale of 0 to 100 where 0 is no effect and 100 is complete control
# Outline: (§2)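 Plants were grown to the 2-leaf stage, then pots were flooded to 3 cm above the soil and compound was applied directly into the paddy water, with that depth held throughout. After 13 to 15 days in a greenhouse, injury was rated visually against untreated controls on a 0 to 100 scale (100 = complete control).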
# [5] = tested on: giant foxtail; test: Test A pre-/postemergence herbicide test; type: in vivo, Setaria faberii
# Outline: as §1
# [6] = tested on: velvetleaf; test: Test A pre-/postemergence herbicide test; type: in vivo, Abutilon theophrasti
# Outline: as §1
# [7] = tested on: wheat; test: Test A pre-/postemergence herbicide test; type: in vivo, Triticum aestivum
# Outline: as §1
# [8] = tested on: sedge, umbrella; test: Test B flooded paddy test; type: in vivo, Cyperus difformis; settings: Flood, scale of 0 to 100 where 0 is no effect and 100 is complete control
# Experimental: (§3) Plant species in the flooded paddy test selected from rice (Oryza sativa), sedge, umbrella (small-flower umbrella sedge, Cyperus difformis), ducksalad (Heteranthera limosa), and barnyardgrass (Echinochloa crus-galli) were grown to the 2-leaf stage for testing. At time of treatment, test pots were flooded to 3 cm above the soil surface, treated by application of test compounds directly to the paddy water, and then maintained at that water depth for the duration of the test. Treated plants and controls were maintained in a greenhouse for 13 to 15 days, after which time all species were compared to controls and visually evaluated. Plant response ratings, summarized in Table B, are based on a scale of 0 to 100 where 0 is no effect and 100 is complete control. A dash (-) response means no test result.
# [9] = tested on: barnyardgrass; test: Test A pre-/postemergence herbicide test; type: in vivo, Echinochloa crus-galli
# Outline: as §1
# [10] = tested on: morningglory; test: Test A pre-/postemergence herbicide test; type: in vivo, Ipomoea spp.
# Outline: as §1
# [11] = tested on: ducksalad; test: Test B flooded paddy test; type: in vivo, Heteranthera limosa; settings: Flood, scale of 0 to 100 where 0 is no effect and 100 is complete control
# Outline: as §2
# [12] = tested on: barnyardgrass; test: Test B flooded paddy test; type: in vivo, Echinochloa crus-galli; settings: Flood, scale of 0 to 100 where 0 is no effect and 100 is complete control
# Experimental: as §3
# [13] = Postemergence, 125 g ai/ha, 0 to 100 scale, 0 no effect, 100 complete control
# [14] = Postemergence, 500 g ai/ha, 0 to 100 scale (0 no effect, 100 complete control)
# [15] = Preemergence, 125 g ai/ha, visual rating on 0 to 100 scale (0 no effect, 100 complete control)
# [16] = preemergence, 500 g ai/ha, 0 to 100 scale
# [17] = preemergence, 500 g ai/ha, 0 to 100 scale (0 no effect, 100 complete control)
# [18] = Postemergence, 1000 g ai/ha, 0 to 100 scale (0 no effect, 100 complete control)
# [19] = Preemergence, 1000 g ai/ha, visual rating on 0 to 100 scale (0 no effect, 100 complete control), approx. 10 days
compound,measurement,setting,value
O=C1NCC(c2ccc3c(c2)OC(F)(F)O3)C1C(=O)Nc1ccccc1C(F)(F)F (racemic) [Compound 75],"Plant response rating, Corn",[1]; [13],0
same,"Plant response rating, Corn",[1]; [14],0
same,Corn plant response rating,[1]; [15],0
same,"Plant response rating, Corn",[1]; [16],0
same,"Plant response rating, Crabgrass, Large",[2]; [13],60
same,"Plant response rating, Crabgrass, Large",[2]; [14],80
same,"Crabgrass, Large plant response rating",[2]; [15],90
same,"Plant response rating, Crabgrass, Large",[2]; [16],90
same,"Plant response rating, Pigweed",[3]; [13],0
same,"Plant response rating, Pigweed",[3]; [14],0
same,Pigweed plant response rating,[3]; [15],0
same,"Plant response rating, Pigweed",[3]; [16],0
same,"Plant response rating, Rice",[4]; 250 g ai/ha,0
same,"Plant response rating, Foxtail, Giant",[5]; [13],70
same,"Plant response rating, Foxtail, Giant",[5]; [14],80
same,"Foxtail, Giant plant response rating",[5]; [15],80
same,"Plant response rating, Foxtail, Giant",[5]; [16],90
same,"Plant response rating, Velvetleaf",[6]; [13],10
same,"Plant response rating, Velvetleaf",[6]; [14],20
same,Velvetleaf plant response rating,[6]; [15],0
same,"Plant response rating, Velvetleaf",[6]; [16],0
same,"Plant response rating, Wheat",[7]; [13],0
same,"Plant response rating, Wheat",[7]; [14],30
same,Wheat plant response rating,[7]; [15],0
same,"Plant response rating, Wheat",[7]; [16],30
same,"Plant response rating, Sedge, Umbrella",[8]; 250 g ai/ha,0
same,"Plant response rating, Barnyardgrass",[9]; [13],40
same,"Plant response rating, Barnyardgrass",[9]; [14],70
same,Barnyardgrass plant response rating,[9]; [15],50
same,"Plant response rating, Barnyardgrass",[9]; [17],70
same,"Plant response rating, Morningglory",[10]; [13],0
same,"Plant response rating, Morningglory",[10]; [14],0
same,Morningglory plant response rating,[10]; [15],0
same,"Plant response rating, Morningglory",[10]; [16],0
same,"Plant response rating, Ducksalad",[11]; 250 g ai/ha,0
same,"Plant response rating, Barnyardgrass",[12]; 250 g ai/ha,0
O=C1NCC(c2ccccc2)C1C(=O)Nc1ccccc1Cl (racemic) [Compound 83],"Plant response rating, Corn",[1]; [13],0
same,"Plant response rating, Corn",[1]; [14],0
same,Corn plant response rating,[1]; [15],0
same,"Plant response rating, Corn",[1]; [16],0
same,"Plant response rating, Crabgrass, Large",[2]; [13],20
same,"Plant response rating, Crabgrass, Large",[2]; [14],70
same,"Crabgrass, Large plant response rating",[2]; [15],70
same,"Plant response rating, Crabgrass, Large",[2]; [16],90
same,"Plant response rating, Pigweed",[3]; [13],0
same,"Plant response rating, Pigweed",[3]; [14],0
same,Pigweed plant response rating,[3]; [15],0
same,"Plant response rating, Pigweed",[3]; [16],0
same,"Plant response rating, Rice",[4]; 250 g ai/ha,0
same,"Plant response rating, Foxtail, Giant",[5]; [13],0
same,"Plant response rating, Foxtail, Giant",[5]; [14],50
same,"Foxtail, Giant plant response rating",[5]; [15],0
same,"Plant response rating, Foxtail, Giant",[5]; [16],70
same,"Plant response rating, Velvetleaf",[6]; [13],0
same,"Plant response rating, Velvetleaf",[6]; [14],0
same,Velvetleaf plant response rating,[6]; [15],0
same,"Plant response rating, Velvetleaf",[6]; [16],0
same,"Plant response rating, Wheat",[7]; [13],0
same,"Plant response rating, Wheat",[7]; [14],0
same,Wheat plant response rating,[7]; [15],0
same,"Plant response rating, Wheat",[7]; [16],0
same,"Plant response rating, Sedge, Umbrella",[8]; 250 g ai/ha,0
same,"Plant response rating, Barnyardgrass",[9]; [14],60
same,Barnyardgrass plant response rating,[9]; [15],0
same,"Plant response rating, Barnyardgrass",[9]; [17],50
same,"Plant response rating, Morningglory",[10]; [13],0
same,"Plant response rating, Morningglory",[10]; [14],0
same,Morningglory plant response rating,[10]; [15],0
same,"Plant response rating, Morningglory",[10]; [16],0
same,"Plant response rating, Ducksalad",[11]; 250 g ai/ha,50
same,"Plant response rating, Barnyardgrass",[12]; 250 g ai/ha,30
O=C1NCC(c2ccccc2)C1C(=O)Nc1ccc(Br)cc1F (racemic) [Compound 84],"Plant response rating, Corn",[1]; [13],0
same,"Plant response rating, Corn",[1]; [14],0
same,Corn plant response rating,[1]; [15],0
same,"Plant response rating, Corn",[1]; [16],0
same,"Plant response rating, Crabgrass, Large",[2]; [13],0
same,"Plant response rating, Crabgrass, Large",[2]; [14],20
same,"Crabgrass, Large plant response rating",[2]; [15],0
same,"Plant response rating, Crabgrass, Large",[2]; [16],50
same,"Plant response rating, Pigweed",[3]; [13],0
same,"Plant response rating, Pigweed",[3]; [14],0
same,Pigweed plant response rating,[3]; [15],0
same,"Plant response rating, Pigweed",[3]; [16],0
same,"Plant response rating, Rice",[4]; 250 g ai/ha,0
same,"Plant response rating, Foxtail, Giant",[5]; [13],0
same,"Plant response rating, Foxtail, Giant",[5]; [14],0
same,"Foxtail, Giant plant response rating",[5]; [15],0
same,"Plant response rating, Foxtail, Giant",[5]; [16],0
same,"Plant response rating, Velvetleaf",[6]; [13],0
same,"Plant response rating, Velvetleaf",[6]; [14],0
same,Velvetleaf plant response rating,[6]; [15],0
same,"Plant response rating, Velvetleaf",[6]; [16],0
same,"Plant response rating, Wheat",[7]; [13],0
same,"Plant response rating, Wheat",[7]; [14],0
same,Wheat plant response rating,[7]; [15],0
same,"Plant response rating, Wheat",[7]; [16],0
same,"Plant response rating, Sedge, Umbrella",[8]; 250 g ai/ha,0
same,"Plant response rating, Barnyardgrass",[9]; [13],0
same,"Plant response rating, Barnyardgrass",[9]; [14],0
same,Barnyardgrass plant response rating,[9]; [15],0
same,"Plant response rating, Barnyardgrass",[9]; [17],0
same,"Plant response rating, Morningglory",[10]; [13],0
same,"Plant response rating, Morningglory",[10]; [14],0
same,Morningglory plant response rating,[10]; [15],0
same,"Plant response rating, Morningglory",[10]; [16],0
same,"Plant response rating, Ducksalad",[11]; 250 g ai/ha,0
same,"Plant response rating, Barnyardgrass",[12]; 250 g ai/ha,0
O=C1NCC(c2ccc(F)c(F)c2)C1C(=O)Nc1cccnc1C(F)(F)F (racemic) [Compound 98],"Plant response rating, Corn",[1]; [18],0
same,"Plant response rating, Corn",[1]; [19],20
same,"Plant response rating, Crabgrass, Large",[2]; [18],90
same,"Plant response rating, Crabgrass, Large",[2]; [19],90
same,"Plant response rating, Pigweed",[3]; [18],0
same,"Plant response rating, Pigweed",[3]; [19],0
same,"Plant response rating, Rice",[4]; 1000 g ai/ha,0
same,"Plant response rating, Foxtail, Giant",[5]; [18],60
same,"Plant response rating, Foxtail, Giant",[5]; [19],90
same,"Plant response rating, Velvetleaf",[6]; [18],10
same,"Plant response rating, Velvetleaf",[6]; [19],0
same,"Plant response rating, Wheat",[7]; [18],20
same,"Plant response rating, Wheat",[7]; [19],0
same,"Plant response rating, Sedge, Umbrella",[8]; 1000 g ai/ha,0
same,"Plant response rating, Barnyardgrass",[9]; [18],50
same,"Plant response rating, Barnyardgrass",[9]; [19],50
same,"Plant response rating, Morningglory",[10]; [18],0
same,"Plant response rating, Morningglory",[10]; [19],0
same,"Plant response rating, Ducksalad",[11]; 1000 g ai/ha,90
same,"Plant response rating, Barnyardgrass",[12]; 1000 g ai/ha,0
